What was measured:
Bovine serum albumin = Bovine serum albumin (Bos taurus, UniProt P02769); experiment: Inhibition of fructose/copper-induced oxidative protein glycation; assay type: biochemical; conditions: concentration of 1mM, after 72 h of incubation
Protocol: The purification of the glycation product was based on protein precipitation and washing with trichloroacetic acid (TCA). The concentration of the glycation-modified protein was estimated by fluorescence measurements (excitation of 340 nm, emission of 410 nm). Incubations performed under the same conditions, yet in the absence of fructose, were used as a control. All the fluorescence measurements were expressed relatively to the standard quinine sulphate solution (1 μg/mL).

[1] = Interaction with the stable free radical DPPH; conditions: for % Interaction with DPPH / Time to completion of the reaction with DPPH: DPPH 200 μΜ; for % Interaction with DPPH: after 30 min of incubation; for Interaction with DPPH (in words): 25-200 μΜ
Protocol: The tested compounds, dissolved in absolute ethanol at final concentrations of 25 up to 200 μΜ, were mixed with DPPH and dissolved in the same solvent at a final concentration of 200 μΜ. The absorbance at 517 nm was recorded every 5 min for 30 min [41].

acetylcholinesterase = target: T1, acetylcholinesterase (Rattus norvegicus, UniProt P37136); experiment: Acetylcholinesterase inhibition (acetylthiocholine hydrolysis, rat brain homogenate); assay type: biochemical; conditions: acetylthiocholine 0.5 mM, after 7 min of incubation
T1 construct: mixed with brain homogenate (20 mg of tissue per mL) from untreated rats; from tissue; host or cells: rat brain homogenate
T1 sequence (P37136 32-614): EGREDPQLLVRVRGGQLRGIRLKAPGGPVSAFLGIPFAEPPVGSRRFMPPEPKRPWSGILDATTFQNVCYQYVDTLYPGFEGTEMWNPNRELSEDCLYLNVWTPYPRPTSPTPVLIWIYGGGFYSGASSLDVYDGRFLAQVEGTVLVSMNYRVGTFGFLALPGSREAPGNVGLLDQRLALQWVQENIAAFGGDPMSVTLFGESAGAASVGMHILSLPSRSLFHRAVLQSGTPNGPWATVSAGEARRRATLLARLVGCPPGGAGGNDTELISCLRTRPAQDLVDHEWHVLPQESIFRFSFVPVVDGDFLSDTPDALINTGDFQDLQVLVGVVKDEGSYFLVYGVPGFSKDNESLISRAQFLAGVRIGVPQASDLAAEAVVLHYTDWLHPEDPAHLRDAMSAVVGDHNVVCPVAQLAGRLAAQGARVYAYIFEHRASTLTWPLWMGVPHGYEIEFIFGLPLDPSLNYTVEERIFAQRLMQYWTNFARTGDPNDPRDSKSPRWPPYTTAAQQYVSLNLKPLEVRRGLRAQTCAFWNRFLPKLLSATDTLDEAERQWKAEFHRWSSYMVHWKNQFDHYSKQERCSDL
Protocol: The tested compounds, dissolved in 60% ethanol, were mixed with brain homogenate (20 mg of tissue per mL) from untreated rats (in 0.1 M phosphate buffer with a pH of 8) and acetylthiocholine (0.5 mM).

[2] = system: lipid peroxidation of rat hepatic microsomal membranes; experiment: Inhibition of lipid peroxidation of rat hepatic microsomal membranes (TBA-reactive material); conditions: for IC50: read-out: IC50, lipid peroxidation; for IC50 / IC50, lipid peroxidation: rat hepatic microsomal membranes, after 45 min of incubation
soybean lipoxygenase = target: T2, soybean lipoxygenase (Glycine max, UniProt P08170); experiment: Soybean lipoxygenase inhibition; assay type: biochemical
T2 construct: purchased Sigma (St. Louis, MO, USA)
T2 sequence (P08170 1-839): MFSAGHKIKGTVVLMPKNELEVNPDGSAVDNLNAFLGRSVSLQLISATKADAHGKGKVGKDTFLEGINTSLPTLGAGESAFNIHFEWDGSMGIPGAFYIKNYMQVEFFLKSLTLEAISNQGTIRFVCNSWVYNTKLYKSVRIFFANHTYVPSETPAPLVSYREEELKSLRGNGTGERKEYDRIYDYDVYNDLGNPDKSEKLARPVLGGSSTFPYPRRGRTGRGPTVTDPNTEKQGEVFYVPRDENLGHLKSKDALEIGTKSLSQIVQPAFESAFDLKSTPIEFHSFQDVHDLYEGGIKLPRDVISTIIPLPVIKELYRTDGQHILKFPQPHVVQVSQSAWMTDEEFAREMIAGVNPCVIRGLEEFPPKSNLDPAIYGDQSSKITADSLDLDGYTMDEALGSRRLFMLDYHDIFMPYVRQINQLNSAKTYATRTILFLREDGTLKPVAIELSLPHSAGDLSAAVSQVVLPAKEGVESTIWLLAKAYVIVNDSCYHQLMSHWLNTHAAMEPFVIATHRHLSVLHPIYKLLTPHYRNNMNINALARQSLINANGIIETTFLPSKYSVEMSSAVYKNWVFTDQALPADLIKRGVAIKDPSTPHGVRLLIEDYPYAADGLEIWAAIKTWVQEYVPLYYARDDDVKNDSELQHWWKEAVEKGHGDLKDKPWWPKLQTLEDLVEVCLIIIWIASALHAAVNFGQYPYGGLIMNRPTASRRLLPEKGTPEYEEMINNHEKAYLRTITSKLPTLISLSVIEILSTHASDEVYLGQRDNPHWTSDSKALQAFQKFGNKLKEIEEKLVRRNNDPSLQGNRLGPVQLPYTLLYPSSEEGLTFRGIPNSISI
Protocol: The reaction mixture (total volume of 3 mL) contained 100 μL of the test compounds (100 μM) or the solvent (absolute ethanol, control), 200 μL of soybean LOX (250 u/mL, in a 0.9% NaCl solution), and 2.6 mL of Tris–HCl buffer with a pH of 9.0. The reaction was initiated by the addition of 100 μL sodium linoleate (100 μM) in the sample mixture (with an equal volume of buffer added to the reference solution). The reaction was followed for 7 min at 28 °C, and the absorbance (234 nm) of a conjugated diene structure was recorded.

Bovine serum albumin, sequence (P02769 25-607): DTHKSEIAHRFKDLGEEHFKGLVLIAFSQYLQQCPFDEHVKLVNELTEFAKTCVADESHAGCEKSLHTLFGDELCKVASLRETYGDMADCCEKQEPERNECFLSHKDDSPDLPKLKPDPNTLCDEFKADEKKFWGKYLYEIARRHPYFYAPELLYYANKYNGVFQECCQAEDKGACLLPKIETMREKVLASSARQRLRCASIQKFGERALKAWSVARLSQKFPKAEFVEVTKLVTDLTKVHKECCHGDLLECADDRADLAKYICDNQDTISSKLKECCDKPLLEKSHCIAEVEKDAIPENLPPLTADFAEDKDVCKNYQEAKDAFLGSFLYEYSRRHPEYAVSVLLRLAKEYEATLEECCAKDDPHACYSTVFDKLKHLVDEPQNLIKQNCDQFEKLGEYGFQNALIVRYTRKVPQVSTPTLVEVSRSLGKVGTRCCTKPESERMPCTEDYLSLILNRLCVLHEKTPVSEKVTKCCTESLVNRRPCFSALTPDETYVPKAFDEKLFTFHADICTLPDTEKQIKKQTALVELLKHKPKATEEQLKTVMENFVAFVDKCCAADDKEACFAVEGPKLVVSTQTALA

SMILES: N=C(N)NN [Aminoguanidine, reference compound]
- % Inhibition of protein glycation (Bovine serum albumin): 56%

SMILES: COC(=O)CCCNC(=O)C1CCCN1C(=O)/C=C/c1ccc(O)c(OC)c1 (stereo not shown) [Compound 1c, (E)-methyl 4-(1-(3-(4-hydroxy-3-methoxyphenyl)acryloyl)pyrrolidine-2-carboxamido)butanoate]
- inhibition at 1000 µM (Bovine serum albumin): 41%
- % Interaction with DPPH ([1]; compound 25 μΜ): 10%
- % Interaction with DPPH ([1]; compound 50 μΜ): 24%
- % Interaction with DPPH ([1]; compound 100 μΜ): 37%
- Time to completion of the reaction with DPPH ([1]; compound 200 μΜ): about 15 min
- % Interaction with DPPH ([1]; compound 200 μΜ): 58%
- IC50 (acetylcholinesterase): 219 µM
- IC50 [2]: 839 µM
- inhibition at 100 µM (soybean lipoxygenase): 36%

SMILES: COC(=O)CCCNC(=O)C1CCCN1C(=O)/C=C/c1cc(OC)c(O)c(OC)c1 (stereo not shown) [Compound 2c, (E)-methyl 4-(1-(3-(4-hydroxy-3,5-dimethoxyphenyl)-acryloyl)pyrrolidine-2-carboxamido)-butanoate]
- inhibition at 1000 µM (Bovine serum albumin): 48%
- % Interaction with DPPH ([1]; compound 25 μΜ): 17%
- % Interaction with DPPH ([1]; compound 50 μΜ): 36%
- % Interaction with DPPH ([1]; compound 100 μΜ): 64%
- Time to completion of the reaction with DPPH ([1]; compound 200 μΜ): completed in the first five minutes
- % Interaction with DPPH ([1]; compound 200 μΜ): 85%
- IC50 (acetylcholinesterase): 298 µM
- IC50 [2]: 290 µM
- inhibition at 100 µM (soybean lipoxygenase): 40%

SMILES: COC(=O)CCCNC(=O)C1CCCN1C(=O)/C=C/c1ccc(OC)c(OC)c1 (stereo not shown) [Compound 3c, (E)-methyl 4-(1-(3-(3,4-dimethoxyphenyl)acryloyl)pyrrolidine-2-carboxamido)butanoate]
- % Inhibition of protein glycation (Bovine serum albumin): did not exert any inhibition and -
- Interaction with DPPH (in words) [1]: could not interact with DPPH at all
- IC50 (acetylcholinesterase): 284 µM
- IC50, lipid peroxidation [2]: could not inhibit lipid peroxidation
- IC50 [2]: > 1000 µM
- inhibition at 100 µM (soybean lipoxygenase): 32%

SMILES: COC(=O)CCCNC(=O)C1CCCN1C(=O)/C=C/c1ccccc1 (stereo not shown) [Compound 4c, (E)-methyl 4-(1-cinnamoylpyrrolidine-2-carboxamido)butanoate]
- % Inhibition of protein glycation (Bovine serum albumin): did not exert any inhibition and -
- Interaction with DPPH (in words) [1]: could not interact with DPPH at all
- IC50, acetylcholinesterase (acetylcholinesterase): -
- IC50, lipid peroxidation [2]: could not inhibit lipid peroxidation
- IC50 [2]: > 1000 µM
- inhibition at 100 µM (soybean lipoxygenase): 40%

SMILES: COC(=O)CCCNC(=O)C1CCCN1C(=O)C1(C)CCc2c(C)c(O)c(C)c(C)c2O1 (stereo not shown) [Compound 5c, Methyl 4-(1-(6-hydroxy-2,5,7,8-tetramethylchroman-2-carbonyl)pyrrolidine-2-carboxamido)-butanoate]
- inhibition at 1000 µM (Bovine serum albumin): 37%
- % Interaction with DPPH ([1]; compound 25 μΜ): 28%
- % Interaction with DPPH ([1]; compound 50 μΜ): 54%
- % Interaction with DPPH ([1]; compound 100 μΜ): 87%
- Time to completion of the reaction with DPPH ([1]; compound 200 μΜ): completed in the first five minutes
- % Interaction with DPPH ([1]; compound 200 μΜ): 89%
- IC50, acetylcholinesterase (acetylcholinesterase): could not inhibit the enzyme and no inhibitory activity and -
- Activity against lipid peroxidation relative to Trolox ([2]; comparison of IC50 values): about three times more active than Trolox
- IC50 [2]: 8 µM
- inhibition at 100 µM (soybean lipoxygenase): 26%

SMILES: Cc1c(C)c2c(c(C)c1O)CCC(C)(C(=O)O)O2 (stereo not shown) [Trolox, 6-hydroxy-2,5,7,8-tetramethylchroman-2-carboxylic acid]
- % Interaction with DPPH ([1]; compound 25 μΜ): 19%
- % Interaction with DPPH ([1]; compound 50 μΜ): 38%
- % Interaction with DPPH ([1]; compound 100 μΜ): 90%
- % Interaction with DPPH ([1]; compound 200 μΜ): 92%
- IC50 [2]: 25 µM
